Assay results reported in patent US12552795B2, “Pyrrolotriazine derivatives for treating kit-and PDGFRA-mediated diseases” (Blueprint Medicines Corporation, priority 2019, dated 2026).

Tests used:
[1] = molecular target: PDGFRα D842V (Homo sapiens (Human), UniProt P16234, D842V); assay: PDGFRα D842V biochemical enzymatic activity assay (EZReader 2 mobility shift); conditions: ATP at APPKM (25 μM), 90 minutes
Description: PDGFRα and KIT enzymatic activity was monitored using the Perkin Elmer electrophoretic mobility shift technology platform, the EZReader 2.
Within the linear, steady-state phase of the kinase enzymatic reaction, the mixed pool of phosphorylated (product) and non-phosphorylated (substrate) peptides was passed through the microfluidic system of the PerkinElmer EZ Reader 2, under an applied electric potential difference. The presence of the phosphate group on the product peptide provided a difference in mass and charge between that of the substrate peptide, resulting in a separation of the substrate and product pools in the sample (Perrin et al., Expert Opin Drug Discovery 2010, January 5(1):51-63).
As the product and substrate peptide mixture passes the lasers within the instrument, these pools are detected (λex=488 nm, λem=568 nm) and resolved as separate peaks. The ratio between these peaks reflects the activity of the compound at that concentration, in that well, under those conditions.
Inhibition of KIT (D816V) PDGFRα (D842V) Mutant Biochemical Enzymatic Activity
All test articles were dissolved in 100% DMSO at a stock concentration of 10 mM. A 100×, 10-point, 4-fold serial dilution of all test compounds was created in 100% DMSO, starting at a relevant concentration, usually 1 mM. A volume of 0.130 μL of each concentration was transferred to the relevant well of a 384-well assay plate (Greiner 781 201) using a TTPLabtech Mosquito nano-liter dispenser. Using the Multidrop, the remaining constituents of the reaction were then added to the 0.130 μL of compound as follows:
The reaction was stopped by the addition of 70 μl of Stop buffer (100 mM HEPES pH 7.5, 0.015% Brij 35, 35 mM EDTA and 0.2% of Coating Reagent 3, Caliper Lifesciences). The plate was read on a Caliper EZReader 2.

[2] = Brain penetration in rats, 24 h IV infusion, brain to plasma ratios; format: in vivo, Sprague-Dawley rats
Description: To understand the brain penetration, brain to plasma ratios of the compounds were obtained in Sprague-Dawley (SD) rats. In vivo equilibrium distribution between blood and brain in preclinical species such as rats is a commonly used parameter to evaluate brain penetration. Kp,brain is the ratio of concentrations in brain and blood (Cbrain/Cplasma). The compound's passive diffusion characteristics, its affinity for membrane transporters at the blood-brain barrier (BBB), and the relative drug binding affinity differences between the plasma proteins and brain tissue influence the Kp,brain.
The animals received IV infusion of 1 mg/kg/hr of the compound over 24 hours via jugular vein cannulation. At 24 hours, blood was collected via tail vein bleeding or cardiac puncture (under anesthesia) and centrifuged to obtain plasma samples. Brain tissues were collected and homogenized with phosphate-buffered saline (PBS). The concentrations of the compounds were obtained in the plasma and brain homogenates by LC-MS/MS analysis.

Sequence of PDGFRα D842V (P16234 24-1089 D842V): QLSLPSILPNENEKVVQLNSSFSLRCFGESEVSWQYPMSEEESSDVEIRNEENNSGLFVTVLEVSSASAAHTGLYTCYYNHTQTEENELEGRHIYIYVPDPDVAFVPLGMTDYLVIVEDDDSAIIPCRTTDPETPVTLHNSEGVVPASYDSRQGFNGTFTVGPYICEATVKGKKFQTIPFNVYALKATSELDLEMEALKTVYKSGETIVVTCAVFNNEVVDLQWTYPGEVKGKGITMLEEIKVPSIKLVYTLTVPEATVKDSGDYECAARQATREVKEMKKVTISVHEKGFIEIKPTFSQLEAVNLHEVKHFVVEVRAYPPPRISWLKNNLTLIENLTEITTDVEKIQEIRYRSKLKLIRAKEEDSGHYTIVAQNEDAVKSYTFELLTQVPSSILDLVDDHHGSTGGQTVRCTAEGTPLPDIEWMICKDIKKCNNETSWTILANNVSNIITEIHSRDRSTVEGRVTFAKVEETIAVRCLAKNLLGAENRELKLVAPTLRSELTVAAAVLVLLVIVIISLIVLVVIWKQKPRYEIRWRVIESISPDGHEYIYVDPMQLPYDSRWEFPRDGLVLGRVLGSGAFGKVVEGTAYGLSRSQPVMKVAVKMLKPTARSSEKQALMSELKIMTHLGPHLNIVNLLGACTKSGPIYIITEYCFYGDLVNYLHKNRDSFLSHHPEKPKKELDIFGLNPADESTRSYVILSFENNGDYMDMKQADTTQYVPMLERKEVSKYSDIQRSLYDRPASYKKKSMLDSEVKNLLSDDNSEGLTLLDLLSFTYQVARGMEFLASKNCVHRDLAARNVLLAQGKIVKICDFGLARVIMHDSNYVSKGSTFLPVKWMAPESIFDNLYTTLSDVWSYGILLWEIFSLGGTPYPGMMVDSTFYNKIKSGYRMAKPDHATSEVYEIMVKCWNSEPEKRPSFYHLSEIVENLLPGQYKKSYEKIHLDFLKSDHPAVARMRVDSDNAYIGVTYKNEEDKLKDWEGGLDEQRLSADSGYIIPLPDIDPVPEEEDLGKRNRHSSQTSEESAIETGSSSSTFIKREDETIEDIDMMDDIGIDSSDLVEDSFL

Structure (SMILES) | IC50 [1] [pM] | further results
C[C@H](CO)n1cc(-c2cc3c(N4CCN(c5ncc([C@@](C)(N)c6ccc(F)cc6)cn5)CC4)ncnn3c2)cn1 [Compound 5, (R)-2-(4-(4-(4-(5-((S)-1-Amino-1-(4-fluorophenyl)ethyl)pyrimidin-2-yl)piperazin-1-yl)pyrrolo[2,1-f][1,2,4]triazin-6-yl)-1H-pyrazol-1-yl)propan-1-ol] | < 300 | –
C[C@](N)(c1ccc(F)cc1)c1cnc(N2CCN(c3ncnn4cc(-c5cnn([C@H]6C[C@@H](O)C6)c5)cc34)CC2)nc1 [Compound 10, cis-3-(4-(4-(4-(5-((S)-1-Amino-1-(4-fluorophenyl)ethyl)pyrimidin-2-yl)piperazin-1-yl)pyrrolo[2,1-f][1,2,4]triazin-6-yl)-1H-pyrazol-1-yl)cyclobutanol] | – | Rat Kp ([2]; rat, methods of Example 4): < 0.39
C[C@@H](CO)n1cc(-c2cc3c(N4CCN(c5ncc([C@@](C)(N)c6ccc(F)cc6)cn5)CC4)ncnn3c2)cn1 [Compound 6, (S)-2-(4-(4-(4-(5-((S)-1-amino-1-(4-fluorophenyl)ethyl)pyrimidin-2-yl)piperazin-1-yl)pyrrolo[2,1-f][1,2,4]triazin-6-yl)-1H-pyrazol-1-yl)propan-1-ol] | < 300 | –
C[C@@H](O)Cn1cc(-c2cc3c(N4CCN(c5ncc([C@@](C)(N)c6ccc(F)cc6)cn5)CC4)ncnn3c2)cn1 [Compound 3, (R)1-{4-[4-(4-{5-[(S)-1-Amino-1-(4-fluoro-phenyl)-ethyl]-pyrimidin-2-yl}-piperazin-1-yl)-pyrrolo[2,1-f][1,2,4]triazin-6-yl]-pyrazol-1-yl}-propan-2-ol] | < 300 | –
CCn1cc(-c2cc3c(N4CCN(c5ncc([C@@](C)(N)c6ccc(F)cc6)cn5)CC4)ncnn3c2)cn1 [Compound 63, reference compound] | – | Kp, brain ([2]; Mean of 3 rats, IV infusion 1 mg/kg/hr over 24 hours): 1.75
CC(C)(O)Cn1cc(-c2cc3c(N4CCN(c5ncc([C@@](C)(N)c6ccc(F)cc6)cn5)CC4)ncnn3c2)cn1 [Compound 1, (S)-1-(4-(4-(4-(5-(1-Amino-1-(4-fluorophenyl)ethyl)pyrimidin-2-yl)piperazin-1-yl)pyrrolo[2,1-f][1,2,4]triazin-6-yl)-1H-pyrazol-1-yl)-2-methylpropan-2-ol] | < 300 | –
CC(C)(CO)n1cc(-c2cc3c(N4CCN(c5ncc([C@@](C)(N)c6ccc(F)cc6)cn5)CC4)ncnn3c2)cn1 [Compound 2, (S)-2-(4-(4-(4-(5-(1-amino-1-(4-fluorophenyl)ethyl)pyrimidin-2-yl)piperazin-1-yl)pyrrolo[2,1-f][1,2,4]triazin-6-yl)-1H-pyrazol-1-yl)-2-methylpropan-1-ol] | < 300 | –
C[C@](N)(c1ccc(F)cc1)c1cnc(N2CCN(c3ncnn4cc(-c5cnn(CCO)c5)cc34)CC2)nc1 [Compound 4, (S)-2-(4-(4-(4-(5-(1-Amino-1-(4-fluorophenyl)ethyl)pyrimidin-2-yl)piperazin-1-yl)pyrrolo[2,1-f][1,2,4]triazin-6-yl)-1H-pyrazol-1-yl)ethanol] | < 300 | –
